Measurements: patent US8410144B2, “Substituted indolo-pyridinone compounds” (ArQule, Inc., priority 2009, dated 2013)

Experiments:
DLD-1 = test: MTS assay, DLD-1 cells; assay type: cell-based; conditions: Homo sapiens, 72 hours, read-out: DLD-1, MTS cell kill % inhibition
Protocol: (§1) Cells were maintained at 37° C., 5% CO2 in DMEM media supplemented with 1% fetal bovine serum, penicillin/streptomycin and fungizone (Invitrogen). Cells were seeded into 96-well tissue culture plates at 3000 per well and cultured at 37° C. for 18 hours. Test compounds were dissolved and diluted to 300× in DMSO then diluted 1:40 in DMEM. Cells were incubated with test compounds for 72 hours followed by incubation with tetrazolium compound (3-(4,5-dimethylthiazol-2-yl)-5-(3-carboxymethoxyphenyl)-2-(4-sulfophenyl)-2H-tetrazolium, inner salt; MTS) and the electron coupling reagent, phenazine methosulfate (PMS) for 4 hours. […] The ability of compounds to inhibit cell growth in this assay is correlated with the reduction of dehydrogenase enzyme activity found in metabolically active cells. The measurement of the absorbance of the formazan was assessed using an ENVISION™ (Perkin Elmer) microplate reader at 492 nm. The calculated IC50 value is the concentration of the test compound that causes a 50% decrease in the absorbance.

KATO III = test: MTS assay, KATO III cells; assay type: cell-based; conditions: Homo sapiens, 72 hours, read-out: KATO III, MTS cell kill % inhibition
Protocol: as §1

MDA-MB-231 = test: MTS assay, MDA-MB-231 cells; assay type: cell-based; conditions: Homo sapiens, 72 hours, read-out: MDA-MB-231, MTS cell kill % inhibition
Protocol: as §1

NCI-H1299 = test: MTS assay, NCI-H1299 cells; assay type: cell-based; conditions: Homo sapiens, 72 hours, read-out: NCI-H1299, MTS cell kill % inhibition
Protocol: as §1

IGF-1R = IGF-1R (Homo sapiens, UniProt P08069); test: IGFR1 activity assay (ELISA); assay type: biochemical; conditions: read-out: IGF-1R, PCT INH (30 μM), ELISA
Protocol: The disclosed compounds were assayed for their ability to inhibit insulin-like growth factor receptor-1 (IGFR1). Nunc Maxisorb plates were coated with streptavidin by overnight incubation with 100 μL per well of 1 μg/ml Streptavidin in DPBS. Prior to the start of the experiment, the plates were washed with TBST (3×200 μL) and blocked for at least 1 hour by adding 150 μL of 5% BSA/TBST. The plates were washed with TBST (3×200 μL/well) and left to dry immediately before the capture step.
The disclosed test articles and controls (Staurosporine) were prepared using the following assay buffer at 3× desired final concentration (50 mM Tris-HCl, 0.02 mg/ml BSA, 10 mM MgCl2, 0.1 mM Na3VO4, 1 mM EGTA, 12.5 μM ATP, 0.01% NP-40, 1 mM DTT in 10% glycerol/water). 20 μL of the test compounds (or control), 20 μL IGF1R (0.33 ng/μL final concentration), and 20 μL of Pyk-2 (0.05 ng/μL final concentration) were rapidly added to the reaction plate. The plate was incubated at room temperature for one hour.
50 μL was transferred from the reaction plate to the streptavidin coated plate. The capture plate was incubated at room temperature for 30 minutes, then washed with TBST three times. 100 μL/well of Cell Signaling anti-phospho tyrosine was added to the capture plate at a dilution of 1:3000 in 2% BSA/TBST. The plate was incubated for one hour at room temperature then washed 6× with TBST. 100 μL/well of alkaline phosphatase tagged goat anti mouse antibody was added to the capture plate at a dilution of 1:4000 in 2% BSA/TBST. The plate was incubated for one hour at room temperature then washed with TBST six times.
The fluorescent readout is initiated by the addition of 100 μL/well of Attophos reagent (6 mg/10 mL). The reading is done on the Perkin Elmer Envision system.

IGF-1R, sequence (P08069 31-1367): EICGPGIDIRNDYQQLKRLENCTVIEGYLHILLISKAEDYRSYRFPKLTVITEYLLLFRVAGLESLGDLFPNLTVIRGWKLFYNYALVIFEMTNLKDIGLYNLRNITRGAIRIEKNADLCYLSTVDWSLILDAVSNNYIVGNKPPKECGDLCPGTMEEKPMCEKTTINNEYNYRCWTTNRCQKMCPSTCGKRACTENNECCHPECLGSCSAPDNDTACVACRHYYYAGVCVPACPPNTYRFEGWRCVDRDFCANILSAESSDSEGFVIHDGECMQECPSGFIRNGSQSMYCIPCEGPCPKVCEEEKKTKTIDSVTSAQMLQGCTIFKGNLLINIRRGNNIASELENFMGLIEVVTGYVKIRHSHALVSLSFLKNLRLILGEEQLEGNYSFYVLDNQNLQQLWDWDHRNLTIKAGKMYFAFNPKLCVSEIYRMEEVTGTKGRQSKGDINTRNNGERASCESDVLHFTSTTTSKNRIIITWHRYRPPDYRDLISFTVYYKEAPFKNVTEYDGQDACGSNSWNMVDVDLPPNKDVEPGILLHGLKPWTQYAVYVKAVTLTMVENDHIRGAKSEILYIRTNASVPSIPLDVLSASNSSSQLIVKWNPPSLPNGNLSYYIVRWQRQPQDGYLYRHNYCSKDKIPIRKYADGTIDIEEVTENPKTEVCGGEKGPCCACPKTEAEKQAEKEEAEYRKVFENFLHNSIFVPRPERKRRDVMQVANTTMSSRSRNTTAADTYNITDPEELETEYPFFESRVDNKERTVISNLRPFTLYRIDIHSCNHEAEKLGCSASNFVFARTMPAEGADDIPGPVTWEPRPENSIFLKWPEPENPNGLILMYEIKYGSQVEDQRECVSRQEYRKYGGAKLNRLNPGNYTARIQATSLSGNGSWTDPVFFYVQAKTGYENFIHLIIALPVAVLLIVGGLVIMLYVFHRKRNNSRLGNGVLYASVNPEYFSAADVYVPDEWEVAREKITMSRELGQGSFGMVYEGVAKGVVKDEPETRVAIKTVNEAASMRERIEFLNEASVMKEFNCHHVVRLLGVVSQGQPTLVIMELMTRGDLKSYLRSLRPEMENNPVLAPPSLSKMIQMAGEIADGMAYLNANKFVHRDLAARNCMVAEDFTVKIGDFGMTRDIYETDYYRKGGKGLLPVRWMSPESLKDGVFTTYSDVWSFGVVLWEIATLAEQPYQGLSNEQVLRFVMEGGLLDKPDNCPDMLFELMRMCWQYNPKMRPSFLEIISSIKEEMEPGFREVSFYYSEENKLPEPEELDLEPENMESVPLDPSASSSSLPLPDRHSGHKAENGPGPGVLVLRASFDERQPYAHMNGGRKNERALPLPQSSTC

Row | melting point [°C] | inhibition at 30 µM (IGF-1R) [%] | SMILES | inhibition at 10 µM (DLD-1) [%] | inhibition at 10 µM (KATO III) [%] | inhibition at 10 µM (MDA-MB-231) [%] | inhibition at 10 µM (NCI-H1299) [%]
1 | 125 to 130 |  | O=C(NCCCN1CCOCC1)c1ccc2[nH]c(-c3ccc[nH]c3=O)c(-c3cc(Cl)cc(Cl)c3)c2c1 [Compound 75, 3-(3,5-dichlorophenyl)-N-(3-morpholin-4-ylpropyl)-2-(2-oxo-1,2-dihydropyridin-3-yl)-1H-indole-5-carboxamide] | 80 to 100 | 80 to 100 | 80 to 100 | 80 to 100
2 | 130 to 132 | 80 to 100 | O=C(NCCCN1CCOCC1)c1ccc2[nH]c(-c3ccc[nH]c3=O)cc2c1 [Compound 55, N-(3-morpholin-4-ylpropyl)-2-(2-oxo-1,2-dihydropyridin-3-yl)-1H-indole-5-carboxamide] |  | < 50 | < 50 | 
3 | 89 to 92 |  | CC(C)c1cccc(-c2c(-c3ccc[nH]c3=O)[nH]c3ccc(C(=O)NCCCN4CCOCC4)cc23)c1 [Compound 71, 3-(3-isopropylphenyl)-N-(3-morpholin-4-ylpropyl)-2-(2-oxo-1,2-dihydropyridin-3-yl)-1H-indole-5-carboxamide] | 80 to 100 | 80 to 100 | 80 to 100 | 80 to 100
4 | 294 to 296 |  | O=C(c1ccccc1)N1CCC(c2c(-c3ccc[nH]c3=O)[nH]c3ccccc23)CC1 [Compound 87, 3-[3-(1-benzoylpiperidin-4-yl)-1H-indol-2-yl]pyridin-2(1H)-one] | < 50 | < 50 | 80 to 100 | < 50
5 |  | 80 to 100 | O=C(NCCCN1CCOCC1)c1ccc2[nH]c(-c3ccc[nH]c3=O)c(-c3cc(F)ccc3F)c2c1 [Compound 60, 3-(2,5-difluorophenyl)-N-(3-morpholin-4-ylpropyl)-2-(2-oxo-1,2-dihydropyridin-3-yl)-1H-indole-5-carboxamide] | 50 to 79 | 80 to 100 | 50 to 79 | 80 to 100
6 |  | 80 to 100 | O=C(NCCCN1CCOCC1)c1ccc2[nH]c(-c3ccc[nH]c3=O)c(-c3ccc(F)cc3)c2c1 [Compound 68, 3-(4-fluorophenyl)-N-(3-morpholin-4-ylpropyl)-2-(2-oxo-1,2-dihydropyridin-3-yl)-1H-indole-5-carboxamide] | < 50 | < 50 | < 50 | 50 to 79
7 |  | 80 to 100 | O=C(NCCCN1CCOCC1)c1ccc2[nH]c(-c3ccc[nH]c3=O)c(-c3ccc(F)c(F)c3)c2c1 [Compound 61, 3-(3,4-difluorophenyl)-N-(3-morpholin-4-ylpropyl)-2-(2-oxo-1,2-dihydropyridin-3-yl)-1H-indole-5-carboxamide] | 80 to 100 | 80 to 100 | 80 to 100 | 80 to 100
8 | 215 to 217 |  | O=c1[nH]cccc1-c1[nH]c2ccccc2c1C1CCN(S(=O)(=O)c2ccccc2)CC1 [Compound 86, 3-{3-[1-(phenylsulfonyl)piperidin-4-yl]-1H-indol-2-yl}pyridin-2(1H)-one] | < 50 | < 50 | < 50 | < 50
9 |  | 80 to 100 | Cc1ccccc1-c1c(-c2ccc[nH]c2=O)[nH]c2ccc(C(=O)NCCCN3CCOCC3)cc12 [Compound 58, 3-(2-methylphenyl)-N-(3-morpholin-4-ylpropyl)-2-(2-oxo-1,2-dihydropyridin-3-yl)-1H-indole-5-carboxamide] | < 50 | < 50 | < 50 | < 50

More lines, now with the values behind:

Row | SMILES | melting point [°C] | inhibition at 30 µM (IGF-1R) [%] | inhibition at 10 µM (DLD-1) [%] | inhibition at 10 µM (KATO III) [%] | inhibition at 10 µM (MDA-MB-231) [%] | inhibition at 10 µM (NCI-H1299) [%]
10 | O=C(NCCCN1CCOCC1)c1cc2c3c(c1)c(-c1ccccc1)c(-c1ccc[nH]c1=O)n3CCC2 [Compound 7, N-(3-morpholin-4-ylpropyl)-2-(2-oxo-1,2-dihydropyridin-3-yl)-1-phenyl-5,6-dihydro-4H-pyrrolo[3,2,1-ij]quinoline-8-carboxamide] | 151 to 158 |  | < 50 | < 50 | < 50 | 
11 | O=C(NC1CCNCC1)c1ccc2[nH]c(-c3ccc[nH]c3=O)c(-c3ccccc3)c2c1 [Compound 3, 2-(2-oxo-1,2-dihydropyridin-3-yl)-3-phenyl-N-piperidin-4-yl-1H-indole-5-carboxamide] | 233 to 236 | 50 to 79 |  |  |  | 
12 | COc1ccc(NC(=O)c2ccc3[nH]c(-c4ccc[nH]c4=O)c(-c4ccc(-c5ccccc5)cc4)c3c2)cc1 [Compound 48, 3-biphenyl-4-yl-N-(4-methoxyphenyl)-2-(2-oxo-1,2-dihydropyridin-3-yl)-1H-indole-5-carboxamide] | 154 to 162 | < 50 | 50 to 79 | 50 to 79 |  | 50 to 79
13 | O=C(c1ccc2[nH]c(-c3ccc[nH]c3=O)c(-c3ccccc3)c2c1)N1CCc2ccccc2C1 [Compound 28, 3-[5-(3,4-dihydroisoquinolin-2(1H)-ylcarbonyl)-3-phenyl-1H-indol-2-yl]pyridin-2(1H)-one] | 171 to 177 | 80 to 100 | 80 to 100 | 80 to 100 |  | 80 to 100
14 | O=C(NCCCn1ccnc1)c1ccc2[nH]c(-c3ccc[nH]c3=O)c(-c3ccccc3)c2c1 [Compound 6, N-[3-(1H-imidazol-1-yl)propyl]-2-(2-oxo-1,2-dihydropyridin-3-yl)-3-phenyl-1H-indole-5-carboxamide] | 153 to 157 |  | 50 to 79 | 80 to 100 | 50 to 79 | 80 to 100
15 | O=C(c1ccc2[nH]c(-c3ccc[nH]c3=O)c(-c3ccc(-c4ccccc4)cc3)c2c1)N1CCc2ccccc2C1 [Compound 47, 3-[3-biphenyl-4-yl-5-(3,4-dihydroisoquinolin-2(1H)-ylcarbonyl)-1H-indol-2-yl]pyridin-2(1H)-one] | 101 to 110 |  | 50 to 79 | 50 to 79 | < 50 | < 50
16 | O=c1[nH]cccc1-c1[nH]c2ccccc2c1C1CCN(Cc2ccccc2)CC1 [Compound 85, 3-[3-(1-benzylpiperidin-4-yl)-1H-indol-2-yl]pyridin-2(1H)-one] | 135 to 139 |  | < 50 | < 50 | < 50 | 
17 | CN(C(=O)c1ccc2[nH]c(-c3ccc[nH]c3=O)c(-c3ccccc3)c2c1)c1ccc(F)cc1 [Compound 20, N-(4-fluorophenyl)-N-methyl-2-(2-oxo-1,2-dihydropyridin-3-yl)-3-phenyl-1H-indole-5-carboxamide] |  | 80 to 100 | 80 to 100 | 80 to 100 | 80 to 100 | 80 to 100
18 | COCC(C)NC(=O)c1ccc2[nH]c(-c3ccc[nH]c3=O)c(-c3ccccc3)c2c1 (centres unmarked) [Compound 11, N-(2-methoxy-1-methylethyl)-2-(2-oxo-1,2-dihydropyridin-3-yl)-3-phenyl-1H-indole-5-carboxamide] |  | 80 to 100 | 50 to 79 | 80 to 100 | < 50 | 50 to 79
19 | O=C(NCC1CCNCC1)c1ccc2[nH]c(-c3ccc[nH]c3=O)c(-c3ccccc3)c2c1 [Compound 4, 2-(2-oxo-1,2-dihydropyridin-3-yl)-3-phenyl-N-(piperidin-4-ylmethyl)-1H-indole-5-carboxamide] | 189 to 191 | 80 to 100 |  |  |  | 
